Reference: patent US8421457B2, “Methods and systems for magnetically resonating both a subject and a substance administered to the subject” (Applied Magnetics, LLC, priority 2008, dated 2013)

How the values were obtained:
fibromyalgia patients = experiment: Case reports: fibromyalgia, drugs combined with MR treatment; assay type: in vivo, human
Protocol: In one example, a person experienced fibromyalgia for a number of years. The subject also experienced insomnia, restless legs, and chronic fatigue. The subject took the drug Naproxen (Aleve). The subject received seven consecutive days of 1 to 1.5 hour treatments.
Their primary complaint was back pain. […] The subject received thirteen treatments within a two-month period. […] Approximately two months after completing their first series of treatment, they began a second regimen of ten treatments within a two-month period.
In a further example, a person at least fifty years old suffered from fibromyalgia for a number of years. […] The subject received daily (when possible) treatments for approximately one year.

Parkinson's patient [1] = experiment: Onset of dyskinesias after Levodopa, with and without magnetic resonance (MR) treatment; assay type: in vivo, human; details: for % Improved: MR result vs baseline; for MR Result Onset of Dyskinesias: MR whole body immersion (7′)
Protocol: Subsequently, the selected magnetic resonance treatment regimen may be transmitted from the MR system server 160 to the client computer 120. The operator 138 then may carry out the treatment regimen upon the subject 150 according to the recommended treatment regimen. For example, the recommended magnetic resonance treatment regimen may specify a certain number and frequency of treatment events, wherein for each treatment an amount of a certain substance is administered to the body of the subject, and the subject is then resonated with electromagnetic energy of a certain flux density and certain frequency for a certain amount of time. Subsequent to each magnetic resonance treatment, all related data is updated locally at the client computer 120 and/or remotely at the MR system server 160.

Parkinson's patient [2] = experiment: Average off time of Levodopa, baseline versus MR treatment; assay type: in vivo, human; details: for % Improved: MR result vs baseline
Text: In the example of Table 1, the MR analysis algorithm 166 has performed a query, for example, on the terms “Indication=Parkinson's” in combination with “Substance=Levodopa,” in order to produce one or more records of one or more subjects of one or more treatment events. Subsequently, the selected magnetic resonance treatment regimen may be transmitted from the MR system server 160 to the client computer 120. The operator 138 then may carry out the treatment regimen upon the subject 150 according to the recommended treatment regimen. For example, the recommended magnetic resonance treatment regimen may specify a certain number and frequency of treatment events, wherein for each treatment an amount of a certain substance is administered to the body of the subject, and the subject is then resonated with electromagnetic energy of a certain flux density and certain frequency for a certain amount of time. Subsequent to each magnetic resonance treatment, all related data is updated locally at the client computer 120 and/or remotely at the MR system server 160. Using the example of a subject 150 that has Parkinson's disease, a side effect of certain Parkinson's drugs may be involuntary movements called dyskinesias. Therefore, an example of results that may be logged in treatment data 137 may be observations as to the amount of time from beginning of treatment to the onset of dyskinesias, which is an indication as to the amount of time that it has taken for the substance 152 to enter the subject's body systems. Other observable effects of the MR treatment after the substance 152 that has been administered to the subject's body systems may be a reduction in off time of the drug, a reduction in tremors, and a reduction in joint stiffness.

[3] = system: migraine and headache patients; experiment: Case reports: migraine and headache drugs combined with MR treatment; assay type: in vivo, human; details: for results on migraines / pain level before being resonated / reduction in pain level: person with migraines taking the drugs; for results on migraines: resonated ten times, 1 to 1.5 hours, over one month; for pain level before being resonated / pain level after treatment: scale of zero to ten; for reduction in pain level: two one-hour MR treatments three months apart; for pain level after treatment: same subject, after ten MR treatments over one month
Protocol: The subject was resonated ten times for 1 to 1.5 hours per treatment over a one-month period.
In another example, a person experienced pain associated with migraines. […] The subject received two one-hour treatments three months apart.
In a further example, a person experienced pain associated with severe headaches. The subject took Aspirin to treat the pain. The subject received one treatment for one hour.

osteoarthritis patients = details: person
Text: In one example, a person suffered from back pain due to degenerative disk disease in their low back and sciatica. […] The subject was resonated approximately three times per week for more than one year.
In another example, a person experienced arthritis pain in a number of joints, including their hips, hands, and shoulders. The subject also suffered from sciatica in their hips and legs. The subject was taking Celebrex. The subject was resonated at least three times per week for one to two hours per session.
In a further example, a person experienced osteoarthritis pain and stiffness in their hands and finger joints. […] The subject was resonated twice for one-half hour per treatment. The subject was asked to rate their pain on a scale of zero (feels great) to ten (feels terrible) before and after treatment.
Alternatively, an amplitude of about 0.01 μG to about 0.46 μG, with a frequency of about 0.2799 Hz to about 12.8765 Hz may be used.

[4] = system: patients with prostate problems, such as an enlarged prostate; experiment: Case report: enlarged prostate drugs combined with MR treatment; assay type: in vivo, human; details: for PSA count, last measurement before MR treatment: person, enlarged prostate for fifteen years, taking the drugs; for PSA count after eighteen months of treatment / prostate size after eighteen months of treatment: same subject, three MR treatments per week
Protocol: In one example, a person had been diagnosed with an enlarged prostate for fifteen years and their PSA count was rising (the last measurement was 2.35). The subject was taking the drugs Avodart and Flomax. The subject began a series of three treatments per week for […], and continuing on an ongoing basis.
In providing MR treatment to a subject with prostate problems, an amplitude of about 0.01 μG to about 0.4 μG, with a frequency of about 0.2799 Hz to about 11.197 Hz may be used.

[5] = same subject, thirteen MR treatments within a two-month period

SMILES: CC(C)C[C@H](CN)CC(=O)O [Lyrica]
- pain level after treatment, first series (fibromyalgia patients; in vivo): 0.5

SMILES: CCN(CC)CC(=O)Nc1c(C)cccc1C [lidoderm]
- pain level after treatment, first series (fibromyalgia patients; [5]): 0.5

SMILES: N[C@@H](Cc1ccc(O)c(O)c1)C(=O)O [Levodopa]
- time from consuming Levodopa to dyskinesias (Parkinson's patient [1]; Example 1, Parkinson's patient, no magnetic resonance): about 38 minutes
- time from consuming Levodopa to dyskinesias (Parkinson's patient [1]; Example 1, same Parkinson's patient, substantially the same dosage, then receives magnetic resonance): about 22 minutes
- absorption rate and efficacy of Levodopa on resonating the patient (Parkinson's patient [1]; Parkinson's patient resonated after consuming Levodopa): improved the absorption rate of Levodopa
- % Improved (Parkinson's patient [1]; Record # 1265: onset of dyskinesias, Levodopa 25 mg): 42%
- Baseline Onset of Dyskinesias (Parkinson's patient [1]; Record # 1265: subject A-84, Parkinson's, Levodopa 25 mg ingested): Onset of Dyskinesias 38 mins
- MR Result Onset of Dyskinesias (Parkinson's patient [1]; Record # 1265: subject A-84, Levodopa 25 mg ingested, 0.0667 microgauss, 2.0 Hz, square, 60 mins): Onset of Dyskinesias 22 mins
- % Improved (Parkinson's patient [1]; Record # 7508: onset of dyskinesias, Levodopa 50 mg): 37%
- Baseline Onset of Dyskinesias (Parkinson's patient [1]; Record # 7508: subject W-65, Parkinson's, Levodopa 50 mg ingested): Onset of Dyskinesias 43 mins
- MR Result Onset of Dyskinesias (Parkinson's patient [1]; Record # 7508: subject W-65, Levodopa 50 mg ingested, 0.0697 microgauss, 1.9 Hz, sinusoidal, 80 mins): Onset of Dyskinesias 27 mins
- % Improved (Parkinson's patient [2]; Record # 4752: average off time, Levodopa 50 mg): 17%
- Baseline Average off time (Parkinson's patient [2]; Record # 4752: subject W-65, Parkinson's, Levodopa 50 mg ingested): Average off time 6 hours
- MR Result Average off time (Parkinson's patient [2]; Record # 4752: subject W-65, Levodopa 50 mg ingested, MR partial immersion (4′), 0.0697 microgauss, 1.9 Hz, sinusoidal, 90 mins): Average off time 5 hours
- % Improved (Parkinson's patient [2]; Record # 5942: average off time, Levodopa 25 mg): 33%
- Baseline Average off time (Parkinson's patient [2]; Record # 5942: subject AA-35, Parkinson's, Levodopa 25 mg ingested): Average off time 6 hours
- MR Result Average off time (Parkinson's patient [2]; Record # 5942: subject AA-35, Levodopa 25 mg ingested, MR partial immersion (22″), 0.0717 microgauss, 1.8 Hz, triangle, 70 mins): Average off time 4 hours

SMILES: CC1(C)O[C@@H]2[C@@H](CO[C@@]3(COS(N)(=O)=O)OC(C)(C)O[C@@H]23)O1 [Topomax]
- results on migraines [3]: decreased frequency and duration of migraines
- pain level before being resonated [3]: nine
- reduction in pain level [3]: 50%
- pain level after treatment [3]: two

SMILES: Cc1ccc(-c2cc(C(F)(F)F)nn2-c2ccc(S(N)(=O)=O)cc2)cc1 [Celebrex]
- results of treatment (osteoarthritis patients; arthritis pain and sciatica, taking Celebrex, resonated at least three times per week, one to two hours per session): a reduction in dosage and frequency of taking Celebrex, decreased pain, improved mobility, and improved sleep

SMILES: NS(=O)(=O)c1cc2c(cc1Cl)NCNS2(=O)=O [HCTZ]
- pre-treatment pain level, first series (fibromyalgia patients; person, fibromyalgia, back pain, on the listed drugs, before MR): 4
- initial pain level, second series (fibromyalgia patients; same subject, approx. two months after first series, before second regimen): 4
- pain level after treatment, first series (fibromyalgia patients; [5]): 0.5

SMILES: CCC(=O)O[C@]1(C(=O)SCF)[C@H](C)C[C@H]2[C@@H]3C[C@H](F)C4=CC(=O)C=C[C@]4(C)[C@@]3(F)[C@@H](O)C[C@@]21C [Flonase]
- pain level after treatment, first series (fibromyalgia patients; [5]): 0.5

SMILES: CN1CC[C@]23c4c5ccc(O)c4O[C@H]2[C@@H](O)C=C[C@H]3[C@H]1C5 [Morphine]
- pain level after treatment, first series (fibromyalgia patients; in vivo): 0.5

SMILES: COc1ccc2cc([C@H](C)C(=O)O)ccc2c1 [Naproxen]
- results of continuing treatment (osteoarthritis patients; back pain (degenerative disk disease, sciatica), taking the drugs, resonated approx. three times per week for more than one year): significantly less pain, an improved range of motion, and improved sleep
- pain level before treatment (fibromyalgia patients; Person, fibromyalgia, took Naproxen (Aleve)): six
- initial pain levels before treatments (fibromyalgia patients; person, fibromyalgia, taking Naproxen (Aleve), depending on the area of the body): three to seven
- pain after treatment (fibromyalgia patients; same subject, daily (when possible) MR treatments for approximately one year): total elimination of pain
- pain level after completing treatment (fibromyalgia patients; same subject, seven consecutive days of 1 to 1.5 hour MR treatments): zero to one

SMILES: COc1ccccc1OCC(O)COC(N)=O (stereo not drawn) [Robaxin]
- pain level after treatment, first series (fibromyalgia patients; [5]): 0.5

SMILES: C[C@]12C=CC(=O)N[C@@H]1CC[C@@H]1[C@@H]2CC[C@]2(C)[C@@H](C(=O)Nc3cc(C(F)(F)F)ccc3C(F)(F)F)CC[C@@H]12 [Avodart]
- PSA count, last measurement before MR treatment [4]: 2.35
- PSA count after eighteen months of treatment [4]: 0.95
- prostate size after eighteen months of treatment [4]: no longer enlarged

SMILES: O=C1CN=C(c2ccccc2Cl)c2cc([N+](=O)[O-])ccc2N1 [Clonazepam]
- pain level after treatment, first series (fibromyalgia patients; [5]): 0.5

SMILES: CCOC(=O)N1CCC(=C2c3ccc(Cl)cc3CCc3cccnc32)CC1 [Claritin]
- pain level after treatment, first series (fibromyalgia patients; [5]): 0.5

SMILES: CNS(=O)(=O)Cc1ccc2[nH]cc(CCN(C)C)c2c1 [Immitrex]
- results on migraines [3]: decreased frequency and duration of migraines
- pain level before being resonated [3]: nine
- reduction in pain level [3]: 50%
- pain level after treatment [3]: two

SMILES: CCOc1ccccc1OCCN[C@H](C)Cc1ccc(OC)c(S(N)(=O)=O)c1 [Flomax]
- PSA count, last measurement before MR treatment [4]: 2.35
- PSA count after eighteen months of treatment [4]: 0.95
- prostate size after eighteen months of treatment [4]: no longer enlarged
